According to patent publication US20110190130A1, “SYNERGISTIC HERBICIDAL COMPOSITION CONTAINING AMINOPYRALID AND 2,4-DICHLOROPHENOXYACETIC ACID” (DOW AGROSCIENCES LLC, priority 2010, published 2011):

What was measured:
Type in all cases: in vivo
[1] = system: common purslane (Portulaca oleracea, POROL); test: Postemergence herbicidal activity of mixtures under field conditions, common purslane; settings: 27 days after application, rice
Method: (§1) These trials were conducted under field conditions in Tolima, Colombia. Trial sites were located in commercially grown fields of common rice (Oryza sativa). The rice crop was grown using normal cultural practices for fertilization, seeding, and maintenance to ensure good growth of the crop and the weeds. The trials were conducted using normal research methodology. Trial plots were 3 meters (m) wide by 6 m long. All treatments were applied using a randomized complete block trial design with 4 replications per treatment. The trial sites had naturally occurring populations of weeds. The weed spectrum included, but was not limited to, rice flatsedge (Cyperus iria, CYPIR); purple nutsedge (Cyperus rotundus, CYPRO); and common purslane, (Portulaca oleracea, POROL). The plots were treated with a postemergence foliar application 15 to 20 days after emergence of the rice.
(§2) Treatments consisted of tank mixes of soluble granules of aminopyralid tri-isopropanolammonium salt and commercially available formulations of 2,4-D (DMA 6 herbicide, water dispersible granules). The application volume was 160 liters per hectare (L/ha) of water. All application were made using precision gas hand sprayers using a 3 m boom using flat fan) (80° nozzles to broadcast the treatments over the top of the rice.
(§3) The treated plots and control plots were rated blind at various intervals after application. Ratings were based of Percent (%) Visual weed control, where 0 corresponds to no injury and 100 corresponds to complete kill.
(§4) Colby's equation was used to determine the herbicidal effects expected from the mixtures (Colby, S. R. Calculation of the synergistic and antagonistic response of herbicide combinations. Weeds 1967 15, 20-22).
(§5) The following equation was used to calculate the expected activity of mixtures containing two active ingredients, A and B:
(§6) A=observed efficacy of active ingredient A at the same concentration as used in the mixture;
(§7) B=observed efficacy of active ingredient B at the same concentration as used in the mixture.

[2] = system: purple nutsedge (Cyperus rotundus, CYPRO); test: Postemergence herbicidal activity of mixtures under field conditions, purple nutsedge; settings: 27 days after application, rice
Method: as §1, §2, §3, §4, §5, §6, §7

[3] = system: rice flatsedge (Cyperus iria, CYPIR); test: Postemergence herbicidal activity of mixtures under field conditions, rice flatsedge; settings: 27 days after application
Method: as §1, §2, §3, §4, §5, §6, §7

[4] = aminopyralid 9 grams ae/ha alone
[5] = aminopyralid 12 grams ae/ha alone

| SMILES | % Control POROL Obs ([1]; 2,4-D 180 grams ae/ha alone) | % Control POROL Obs ([1]; 2,4-D 240 grams ae/ha alone) | % Control CYPRO Obs ([2]; 2,4-D 180 grams ae/ha alone) | % Control CYPRO Obs ([2]; 2,4-D 240 grams ae/ha alone) | % Control CYPIR Obs ([3]; 2,4-D 180 grams ae/ha alone) | % Control CYPIR Obs ([3]; 2,4-D 240 grams ae/ha alone) | % Control POROL Obs [1, 4] | % Control POROL Obs [1, 5] | % Control CYPRO Obs [2, 4] | % Control CYPRO Obs [2, 5] | % Control CYPIR Obs [3, 4] | % Control CYPIR Obs [3, 5] |
| --- | --- | --- | --- | --- | --- | --- | --- | --- | --- | --- | --- | --- |
| O=C(O)COc1ccc(Cl)cc1Cl [2,4-D, 2,4-dichlorophenoxyacetic acid] | 20% | 39% | 38% | 60% | 45% | 46% | – | – | – | – | – | – |
| Nc1cc(Cl)nc(C(=O)O)c1Cl [Aminopyralid, 4-amino-3,6-dichloro-2-pyridinecarboxylic acid] | – | – | – | – | – | – | 41% | 53% | 0% | 0% | 0% | 13% |
